Test results: ChEMBL document CHEMBL1141580, “Studies on the chemical constituents and anticancer activity of Saxifraga stolonifera (L) Meeb” (2008)
The source made the active and inactive calls. The calls are words filed in the database; no cut-off is given here.

Experiments:
BGC-823 [1] = test: Growth inhibition of human BGC823 cells at 5 uM after 72 hrs by MTT assay relative to control; type: functional; details: BGC-823, 72 h, read-out: GI
BGC-823 [2] = test: Growth inhibition of human BGC823 cells at 10 uM after 72 hrs by MTT assay relative to control; type: functional; details: BGC-823, 72 h, read-out: GI
BGC-823 [3] = test: Growth inhibition of human BGC823 cells at 50 uM after 72 hrs by MTT assay relative to control; type: functional; details: BGC-823, 72 h, read-out: GI
BGC-823 [4] = test: Growth inhibition of human BGC823 cells at 100 uM after 72 hrs by MTT assay relative to control; type: functional; details: BGC-823, 72 h, read-out: GI
BGC-823 [5] = test: Induction of apoptosis in human BGC823 cells at 20 uM after 12 hrs by flow cytometry; type: functional
BGC-823 [6] = test: Induction of apoptosis in human BGC823 cells at 20 uM after 24 hrs by flow cytometry; type: functional
BGC-823 [7] = test: Induction of apoptosis in human BGC823 cells at 20 uM after 36 hrs by flow cytometry; type: functional
BGC-823 [8] = test: Induction of apoptosis in human BGC823 cells at 20 uM after 48 hrs by flow cytometry; type: functional
BGC-823 [9] = test: Induction of apoptosis in human BGC823 cells assessed as increase in DNA fragmentation at 100 uM after 48 hrs; type: functional, cell-based
BGC-823 [10] = test: Induction of apoptotic bodies in human BGC823 cells at 50 uM after 48 hrs; type: functional, cell-based
BGC-823 [11] = test: Effect on cell morphology in human BGC823 cells assessed as chromosomal condensations at 50 uM; type: functional, cell-based
BGC-823 [12] = test: Induction of apoptosis in human BGC823 cells assessed as increase in DNA fragmentation at 50 uM after 48 hrs; type: functional, cell-based
BGC-823 [13] = test: Induction of apoptosis in human BGC823 cells at 100 uM after 12 hrs by flow cytometry; type: functional
BGC-823 [14] = test: Induction of apoptosis in human BGC823 cells at 100 uM after 24 hrs by flow cytometry; type: functional
BGC-823 [15] = test: Induction of apoptosis in human BGC823 cells at 100 uM after 36 hrs by flow cytometry; type: functional
BGC-823 [16] = test: Induction of apoptosis in human BGC823 cells at 100 uM after 48 hrs by flow cytometry; type: functional

Q: How did the inhibition of growth at 5 µM (BGC-823 [1]) turn out when `CCCCCCCCCCCCCCCCCCCCCCCCCCCCC` [NONACOSANE] was run?
A: -0.9%

Q: And the inhibition of growth at 10 µM (BGC-823 [2])?
A: -5.2%

Q: And the inhibition of growth at 50 µM (BGC-823 [3])?
A: -5.6%

Q: And the inhibition of growth at 100 µM (BGC-823 [4])?
A: -6.6%

Q: `CC[C@@]1(O)C(=O)OCc2c1cc1n(c2=O)Cc2cc3cc(O)ccc3nc2-1` [HYDROXYCAMPTOTHECIN] was tested. Which Activity (BGC-823 [5]) did it give?
A: 3.72%

Q: What about the Activity (BGC-823 [6]) of the same molecule?
A: 4.78%

Q: What about the Activity (BGC-823 [7]) of the same molecule?
A: 13.2%

Q: And the Activity (BGC-823 [8])?
A: 6.47%

Q: Which results are given for `CCCCCCCCCCCCCCCCCCCCCCCCCCCCCCC` [HENTRIACONTANE]?
A: inhibition of growth at 5 µM (BGC-823 [1]): 4.5%; inhibition of growth at 10 µM (BGC-823 [2]): 3.9%; inhibition of growth at 50 µM (BGC-823 [3]): 7%; inhibition of growth at 100 µM (BGC-823 [4]): 10.1%

Q: `C[C@@H]1O[C@@H](Oc2c(-c3ccc(O)c(O)c3)oc3cc(O)cc(O)c3c2=O)C(O)[C@H](O)C1O` (single isomer, unassigned) [QUERCITRIN] was tested. Which inhibition of growth at 5 µM (BGC-823 [1]) did it give?
A: 0.2%

Q: What about the inhibition of growth at 10 µM (BGC-823 [2]) of the same molecule?
A: 3.8%

Q: And the inhibition of growth at 50 µM (BGC-823 [3])?
A: 5.2%

Q: What about the inhibition of growth at 100 µM (BGC-823 [4]) of the same molecule?
A: 10.6%

Q: What does the source list for `O=c1c(O)c(-c2ccc(O)c(O)c2)oc2cc(O)cc(O)c12` [QUERCETIN]?
A: Activity (BGC-823 [9]): Active; Activity (BGC-823 [10]): Active; Activity (BGC-823 [11]): Active; inhibition of growth at 5 µM (BGC-823 [1]): 7.5%; inhibition of growth at 10 µM (BGC-823 [2]): 11%; inhibition of growth at 50 µM (BGC-823 [3]): 22.4%; inhibition of growth at 100 µM (BGC-823 [4]): 39.3%; Activity (BGC-823 [12]): Active; Activity (BGC-823 [13]): 5.02%; Activity (BGC-823 [14]): 11.82%; Activity (BGC-823 [15]): 10.19%; Activity (BGC-823 [16]): 10.23%

Q: `CC[C@H](CC[C@@H](C)[C@H]1CC[C@H]2[C@@H]3CC=C4C[C@@H](O)CC[C@]4(C)[C@H]3CC[C@]12C)C(C)C` [BETA-SITOSTEROL] was tested. Which inhibition of growth at 5 µM (BGC-823 [1]) did it give?
A: 0.4%

Q: What about the inhibition of growth at 10 µM (BGC-823 [2]) of the same molecule?
A: 8.8%

Q: And the inhibition of growth at 50 µM (BGC-823 [3])?
A: 15.6%

Q: What about the inhibition of growth at 100 µM (BGC-823 [4]) of the same molecule?
A: 20.4%

Q: With `COc1c(O)cc2c(c1O)[C@@H]1O[C@H](CO)[C@@H](O)[C@H](O)[C@H]1OC2=O` [BERGENIN] as the molecule, how does the inhibition of growth at 5 µM (BGC-823 [1]) read?
A: -0.8%

Q: What about the inhibition of growth at 10 µM (BGC-823 [2]) of the same molecule?
A: 2.2%

Q: What about the inhibition of growth at 50 µM (BGC-823 [3]) of the same molecule?
A: 6.1%

Q: What about the inhibition of growth at 100 µM (BGC-823 [4]) of the same molecule?
A: 10.8%

Q: How did the inhibition of growth at 5 µM (BGC-823 [1]) turn out when `O=c1c(O[C@@H]2O[C@H](CO)C(O)[C@H](O)[C@H]2O)c(-c2ccc(O)c(O)c2)oc2cc(O)cc(O)c12` (single isomer, unassigned) [ISOQUERCETIN] was run?
A: 1.5%

Q: And the inhibition of growth at 10 µM (BGC-823 [2])?
A: 8.4%

Q: What about the inhibition of growth at 50 µM (BGC-823 [3]) of the same molecule?
A: 9.2%

Q: What about the inhibition of growth at 100 µM (BGC-823 [4]) of the same molecule?
A: 12.1%

Q: What does the source list for `O=C(O)c1cc(O)c(O)c(O)c1` [GALLIC ACID]?
A: inhibition of growth at 5 µM (BGC-823 [1]): 6.7%; inhibition of growth at 10 µM (BGC-823 [2]): 10.2%; inhibition of growth at 50 µM (BGC-823 [3]): 16.7%; inhibition of growth at 100 µM (BGC-823 [4]): 22.5%
